Assay results as given in ChEMBL document CHEMBL1201862, “PubChem BioAssay data set” (2004).
Calls of active or inactive are those of the source.

Legend:
[1] = target: T1, Short transient receptor potential channel 4 (Mus musculus, UniProt Q9QUQ5); assay: mouse TRPC4 channel activators, dose response, cell-based, HEK293 TRPC4/mu-opioid, Fluo-4 calcium (AID 434937); type: functional
T1 sequence (Q9QUQ5 whole entry): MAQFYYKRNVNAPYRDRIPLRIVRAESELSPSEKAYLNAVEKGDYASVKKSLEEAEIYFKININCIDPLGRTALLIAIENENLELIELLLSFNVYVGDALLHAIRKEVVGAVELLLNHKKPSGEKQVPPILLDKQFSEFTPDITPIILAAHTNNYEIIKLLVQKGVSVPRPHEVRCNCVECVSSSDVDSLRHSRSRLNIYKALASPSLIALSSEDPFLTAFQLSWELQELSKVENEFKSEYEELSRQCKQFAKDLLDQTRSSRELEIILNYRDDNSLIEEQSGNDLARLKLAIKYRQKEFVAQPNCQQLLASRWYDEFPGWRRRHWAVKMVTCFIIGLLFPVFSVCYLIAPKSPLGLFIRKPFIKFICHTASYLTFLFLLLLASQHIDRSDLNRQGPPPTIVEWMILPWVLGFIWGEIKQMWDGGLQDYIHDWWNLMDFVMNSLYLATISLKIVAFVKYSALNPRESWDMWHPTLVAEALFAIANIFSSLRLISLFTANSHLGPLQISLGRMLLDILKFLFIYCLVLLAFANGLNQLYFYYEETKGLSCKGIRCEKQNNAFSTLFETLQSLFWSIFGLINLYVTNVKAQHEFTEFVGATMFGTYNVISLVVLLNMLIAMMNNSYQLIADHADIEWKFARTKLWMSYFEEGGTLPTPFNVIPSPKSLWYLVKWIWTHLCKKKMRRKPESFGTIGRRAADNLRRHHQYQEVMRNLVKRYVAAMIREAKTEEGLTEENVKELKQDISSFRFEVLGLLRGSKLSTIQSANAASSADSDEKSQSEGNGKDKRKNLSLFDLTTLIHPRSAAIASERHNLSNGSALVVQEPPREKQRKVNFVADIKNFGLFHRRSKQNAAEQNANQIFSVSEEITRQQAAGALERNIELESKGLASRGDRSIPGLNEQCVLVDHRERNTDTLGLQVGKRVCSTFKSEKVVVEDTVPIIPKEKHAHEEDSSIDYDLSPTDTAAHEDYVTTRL

[2] = control 3'UTR Renilla luciferase suppression, dose response, counter-screen for Shn3 inhibitor project, cell-based, Clone20-Shn3RL, cherry-picked (AID 624133); type: functional
[3] = Shn3 3'UTR reporter inhibitors, dose response, cell-based, Clone20 osteoblasts, firefly luciferase, cherry-picked (AID 624132); type: functional;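 further: firefly luciferase luminescence from reporter carrying the Shn3 3'UTR in osteoblasts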
[4] = system: BJ; assay: cytotoxicity toward BJ-TERT fibroblasts, dose response, cell-based, RAS-independent, luminescence (AID 1933); type: functional; conditions: Homo sapiens
[5] = system: BJ; assay: cells; type: functional, cell-based; conditions: Homo sapiens
[6] = system: BJ; assay: cytotoxicity toward BJ-TERT-LT-ST fibroblasts, dose response, cell-based, RAS-independent, luminescence (AID 1935); type: functional; conditions: Homo sapiens;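 further: BJ fibroblasts immortalized with TERT plus LT and ST oncogenes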
[7] = cytotoxicity toward DRD oncogenic fibroblasts, dose response, cell-based, non-viral oncogenic, luminescence (AID 1934); type: functional; conditions: Homo sapiens
[8] = system: BJ; assay: cytotoxicity toward Ras-transformed BJeLR fibroblasts, dose response, cell-based, alamar blue fluorescence, cherrypicked samples (AID 2631); type: functional; conditions: Homo sapiens;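 further: confirmatory dose-response assay in RAS-dependent BJ fibroblasts engineered with TERT, LT and ST, with cytotoxicity read by fluorescence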
[9] = system: Streptococcus; assay: Group A Streptococcus viability loss, dose response, counter-screen for streptokinase expression inhibitor project, luminescence, BacTiterGlo (AID 1915); type: functional, organism-based;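 further: potency for reduction of bacterial viability or growth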
[10] = system: Streptococcus sp. 'group A'; assay: growth inhibition of control SK(-) GAS strain, dose response, counter-screen for streptokinase expression inhibitor project, luminescence, kanamycin, BacTiterGlo, confirmation (AID 1900); type: functional, organism-based
[11] = inhibitors of clade B AD8 Env fusion, dose response, cell-based, cherry-pick (AID 652062); type: functional;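 further: luciferase signal from cell-cell fusion driven by HIV-1 clade B AD8 Env; potency is for inhibitors of fusion seen as a drop in luminescence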
[12] = system: P388/ADR; assay: cells; type: functional; conditions: Mus musculus
[13] = system: P388; assay: cells; type: functional; conditions: Mus musculus
[14] = system: SN12K1; assay: cells; type: functional; conditions: Homo sapiens
[15] = inhibitors of HIV Env-driven cell fusion, dose response, cherry-pick (AID 652057); type: functional, cell-based
[16] = intracellular Trypanosoma cruzi inhibitors in host cells – cell-based, plate reader, cherry-pick samples, set 3, dose response (AID 651818); type: functional;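 further: compounds incubated with infected cells for about four days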
[17] = target: Induced myeloid leukemia cell differentiation protein Mcl-1 (Homo sapiens, UniProt Q07820); type: functional
Chain of Induced myeloid leukemia cell differentiation protein Mcl-1 (Q07820 whole entry): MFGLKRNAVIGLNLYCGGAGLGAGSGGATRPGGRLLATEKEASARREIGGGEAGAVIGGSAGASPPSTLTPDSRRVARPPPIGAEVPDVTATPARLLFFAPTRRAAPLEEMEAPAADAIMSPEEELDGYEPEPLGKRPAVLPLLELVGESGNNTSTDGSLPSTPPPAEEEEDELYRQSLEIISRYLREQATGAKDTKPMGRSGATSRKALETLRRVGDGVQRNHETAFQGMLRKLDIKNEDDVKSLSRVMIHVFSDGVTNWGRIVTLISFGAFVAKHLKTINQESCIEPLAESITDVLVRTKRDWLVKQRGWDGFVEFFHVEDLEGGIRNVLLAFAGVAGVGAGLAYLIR

[18] = target: T2, High affinity choline transporter 1 (Homo sapiens, UniProt Q9GZV3); assay: CHT inhibitors, dose response, cell-based, 5-point CRC, membrane potential dye (AID 504840); type: functional
T2 sequence (Q9GZV3 whole entry): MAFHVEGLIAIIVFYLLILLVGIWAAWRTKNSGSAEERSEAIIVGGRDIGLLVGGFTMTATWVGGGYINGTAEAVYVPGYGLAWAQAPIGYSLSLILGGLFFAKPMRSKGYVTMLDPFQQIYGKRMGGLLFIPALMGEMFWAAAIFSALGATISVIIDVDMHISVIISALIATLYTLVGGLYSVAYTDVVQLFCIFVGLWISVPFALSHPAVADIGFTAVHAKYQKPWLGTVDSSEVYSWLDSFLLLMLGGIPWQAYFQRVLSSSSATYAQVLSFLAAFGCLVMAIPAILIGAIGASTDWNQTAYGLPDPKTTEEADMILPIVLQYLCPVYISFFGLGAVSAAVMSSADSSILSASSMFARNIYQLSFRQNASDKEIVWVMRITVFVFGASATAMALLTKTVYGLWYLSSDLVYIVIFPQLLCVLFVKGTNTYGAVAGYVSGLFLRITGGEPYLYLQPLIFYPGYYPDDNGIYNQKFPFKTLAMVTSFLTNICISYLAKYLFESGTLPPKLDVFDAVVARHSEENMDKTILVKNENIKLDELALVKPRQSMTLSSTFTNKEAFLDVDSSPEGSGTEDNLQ

[19] = cells; type: functional, cell-based
[20] = cells; type: functional, cell-based; remark: listed apart in the source
[21] = Luminescence Cell-Based Dose Retest to Confirm Inhibitors of Cancer Stem Cells. [Related pubchem assays (depositor defined):AID2717, AID2721]; type: functional; conditions: Homo sapiens
[22] = system: INS1; assay: beta cell apoptosis inhibitors, cytokine rescue, dose response, luminescence, retest (AID 449756); type: functional, cell-based; conditions: Rattus norvegicus;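 further: cell death triggered by IL-1 beta plus TNF-alpha plus IFN-gamma mixture; protective hits raise ATP signal compared with cytokine alone wells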
[23] = target: T3, Calpain-2 catalytic subunit (Sus scrofa, UniProt P43367); assay: pig calpain II inhibitor potency, dose response, biochemical, fluorogenic peptide substrate (AID 1420); type: functional
T3 sequence (P43367 whole entry): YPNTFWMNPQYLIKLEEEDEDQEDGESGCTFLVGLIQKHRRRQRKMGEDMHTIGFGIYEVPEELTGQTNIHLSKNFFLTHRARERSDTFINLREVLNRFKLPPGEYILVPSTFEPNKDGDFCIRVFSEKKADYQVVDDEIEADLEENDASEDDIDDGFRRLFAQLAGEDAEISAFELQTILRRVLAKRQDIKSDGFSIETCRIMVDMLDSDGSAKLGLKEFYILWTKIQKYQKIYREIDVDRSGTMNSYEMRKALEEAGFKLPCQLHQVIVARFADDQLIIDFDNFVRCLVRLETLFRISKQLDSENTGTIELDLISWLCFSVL

[24] = target: Cytochrome P450 2C9 (Homo sapiens, UniProt P11712)
Chain of Cytochrome P450 2C9 (P11712 whole entry): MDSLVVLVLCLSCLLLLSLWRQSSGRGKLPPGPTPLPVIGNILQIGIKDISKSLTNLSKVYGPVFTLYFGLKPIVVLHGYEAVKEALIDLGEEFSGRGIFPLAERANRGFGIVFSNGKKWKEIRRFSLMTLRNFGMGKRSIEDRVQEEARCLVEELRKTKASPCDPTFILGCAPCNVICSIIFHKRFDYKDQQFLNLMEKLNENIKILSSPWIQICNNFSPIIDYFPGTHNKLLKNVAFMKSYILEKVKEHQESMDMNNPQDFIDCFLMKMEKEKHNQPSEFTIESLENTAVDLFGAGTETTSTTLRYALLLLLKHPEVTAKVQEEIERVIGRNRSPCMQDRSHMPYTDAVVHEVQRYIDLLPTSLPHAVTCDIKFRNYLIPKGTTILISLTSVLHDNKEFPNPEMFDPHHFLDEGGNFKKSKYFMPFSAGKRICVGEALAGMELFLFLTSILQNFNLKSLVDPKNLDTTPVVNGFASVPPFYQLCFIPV

CN(C)C(CNC(=O)Cc1c(Cl)cccc1Cl)c1ccccc1 (configuration not stated)
EC50 [1]: 0.376 µM (active)

Cc1cc(C)n2nc(SCc3cccc(S(=O)(=O)N(C)C)c3)nc2n1
AC50 [2]: 8.55 µM (active) | AC50 [3]: 14 µM (active)

O=C(CCN1C(=O)/C(=C\c2cccc(Br)c2)SC1=S)NCCCN1CCOCC1
EC50 [4]: 1.4 µM (inconclusive) | EC50 [5]: 93.6 µM (inconclusive) | EC50 [6]: > 150 µM (not active) | EC50 [7]: 4.75 µM (active) | EC50 [8]: > 66.7 µM (inactive)

COc1cccc(N2C(N)=NC(N)=NC2(C)C)c1
EC50 [9]: 1.42 µM (active) | EC50 [10]: 0.355 µM (active) | EC50 [4]: > 150 µM (not active) | EC50 [5]: 5.99 µM (inconclusive) | EC50 [6]: > 150 µM (not active) | EC50 [7]: 12.6 µM (active) | EC50 [8]: > 133 µM (inactive)

CCC(NCCc1c[nH]c2ccccc12)=C1C(=O)N(C)C(=O)N(C)C1=O
AC50 [11]: 17.6 µM (active)

COc1cc(C2c3cc4c(cc3[C@@H](Nc3cnc5ccccc5c3)C3COC(=O)[C@H]23)OCO4)cc(OC)c1O (some centres not stated)
GI50 [12]: 0.182 µM (active) | GI50 [13]: < 0.01 µM (active) | GI50 [14]: 0.0269 µM (active)

Clc1ccc(-c2noc(CSc3nnc(-c4ccncc4)n3-c3ccccc3)n2)cc1
AC50 [15]: 25 µM (active) | AC50 [11]: 4.51 µM (active)

C[C@@H]1CN([C@@H](C)CO)C(=O)Cc2cc(NC(=O)C3CC3)ccc2O[C@@H]1CN(C)Cc1ccc(C(=O)Nc2ccccc2N)cc1
AC50 [16]: 3.26 µM (active)

C[C@@H]1CN([C@H](C)CO)C(=O)Cc2cc(NC(=O)Nc3ccc(C(F)(F)F)cc3)ccc2O[C@H]1CN(C)CC1CCCCC1
AC50 [16]: 3.27 µM (active)

COc1ccc(C(=O)/C(Br)=C/C(=O)O)cc1
GI50 [12]: 17.7 µM (inactive) | GI50 [13]: 11.7 µM (inactive) | GI50 [14]: 6 µM (inactive)

O=C(Nc1ccc(N2CCCC2)cc1)c1ccc(Br)o1
IC50 [17]: 0.932 µM (active)

CCN(CC)CCCNc1ncc(C)c2[nH]c3ccncc3c12
GI50 [12]: 76.9 µM (inactive) | GI50 [13]: 0.479 µM (active) | GI50 [14]: 5.56 µM (inactive)

Cc1nn(-c2ccc(Br)cc2)c(O)c1/C=N/c1ccc(S(=O)(=O)Nc2nccs2)cc1
IC50 [17]: 6 µM (active)

COc1ccc(-c2nc3ccc(C(=O)NCCCN4CCOCC4)cc3nc2-c2ccc(OC)cc2)cc1
IC50 [18]: 13.2 µM (active)

CN1CCN(C(=O)c2cccn(Cc3c(Cl)cccc3Cl)c2=O)CC1
EC50 [1]: 0.668 µM (active)

CN1CCN(S(=O)(=O)c2cccc(C(=O)Nc3ccc(Br)cc3Br)c2)CC1
IC50 [18]: 12.6 µM (active)

COc1ccc(CN(C)C[C@H]2Oc3ccc(NS(=O)(=O)c4ccc(Cl)cc4)cc3CC(=O)N([C@H](C)CO)C[C@H]2C)cc1
AC50 [16]: 4.65 µM (active)

O=C(Nc1nc2ccc(S(=O)(=O)N3CCCCC3)cc2s1)c1cccnc1
IC50 [18]: 13.2 µM (active)

NC(=O)CC(NC(=O)Cc1ccc(Cl)cc1)c1ccc(NCCc2ccccc2F)c([N+](=O)[O-])c1 (configuration not stated)
EC50 [19]: > 29.9 µM (inactive) | IC50 [20]: > 29.9 µM (inactive)

C[C@H](CO)N1C[C@H](C)[C@H](CN(C)Cc2ccc(-c3ccccc3)cc2)Oc2ccc(NC(=O)C3CCCCC3)cc2CC1=O
AC50 [16]: 2.26 µM (active)

CN(CC(=O)Nc1ccccc1Cl)C(=O)CCNC(=O)Nc1ccccc1
EC50 [19]: > 29.9 µM (inactive) | IC50 [20]: > 29.9 µM (inactive)

O=[N+]([O-])c1cc(C(F)(F)F)ccc1N1CCCNCC1
EC50 [1]: 0.841 µM (active)

Cc1ccc(S(=O)(=O)Nc2ccc3c(c2)C(=O)N([C@H](C)CO)C[C@H](C)[C@H](CN(C)S(=O)(=O)c2ccccc2)O3)cc1
AC50 [16]: 13.3 µM (active)

COc1ccccc1/C=C1\SC(=S)N(CCC(=O)NCCCn2ccnc2)C1=O
EC50 [4]: > 150 µM (not active) | EC50 [5]: > 150 µM (not active) | EC50 [6]: > 75 µM (inconclusive) | AC50 [21]: 6.05 µM (active) | EC50 [7]: > 150 µM (not active) | EC50 [8]: > 133 µM (inactive)

C[C@H](CO)N1C[C@H](C)[C@H](CN(C)S(=O)(=O)c2ccc(Cl)cc2)Oc2ccc(NC(=O)Nc3ccc(C(F)(F)F)cc3)cc2CC1=O
AC50 [16]: 3.91 µM (active)

O=C1OC(c2ccc([N+](=O)[O-])cc2)=N/C1=C/N1CC2CC(C1)c1cccc(=O)n1C2 (configuration not stated)
EC50 [1]: 10.6 µM (active)

NCCCNc1ccc2c3c(nn2CCNCCO)-c2c(O)ccc(O)c2C(=O)c13
GI50 [12]: 1.21 µM (inactive) | GI50 [13]: 0.146 µM (active) | GI50 [14]: 0.167 µM (active)

CC1(C)N=C(N)N=C(N)N1c1ccc(OCCCOc2ccccc2)c(Cl)c1
GI50 [12]: 1.39 µM (inactive) | GI50 [13]: < 0.01 µM (active) | EC50 [4]: 23.8 µM (active) | EC50 [5]: < 0.12 µM (active) | AC50 [22]: 5.88 µM (active) | EC50 [6]: > 150 µM (not active) | EC50 [7]: 0.174 µM (inconclusive) | GI50 [14]: 0.0289 µM (active)

NN=C(S)NCCc1ccccc1
EC50 [19]: > 29.9 µM (inactive) | IC50 [20]: > 29.9 µM (inactive)

Cc1ccc(CNC(=O)c2ccc3c(=O)[nH]c4c(C(=O)NCC5CCCO5)sc(=S)n4c3c2)cc1 (configuration not stated)
IC50 [23]: 5.68 µM (active) | IC50 [17]: 6.74 µM (active)

CC(C)c1cc(C(=O)NCCc2cccs2)c(N)s1
EC50 [19]: > 29.9 µM (inactive) | IC50 [20]: > 29.9 µM (inactive)

O=C1NC(=S)S/C1=C\c1coc2ccccc2c1=O
IC50 [18]: 14.5 µM (active)

C[C@]12CC[C@H](O)C=C1CC[C@@H]1[C@@H]2CC[C@]2(C)C(c3ccc(=O)oc3)CC[C@]12O (some centres not stated)
GI50 [12]: 119 µM (inactive) | GI50 [13]: 116 µM (inactive) | GI50 [14]: 0.0136 µM (active)

C=C1C(=O)OC2C1CC1OC2C(C)CCC/C(C)=C\CCC1(C)O (configuration not stated)
GI50 [12]: 9.66 µM (inactive) | GI50 [13]: 8.05 µM (inactive) | GI50 [14]: 10.9 µM (inactive)

Cc1ccc2c(c1)C1CN(C)CCC1N2C(=O)Nc1cccc(Cl)c1 (configuration not stated)
AC50 [24]: 39.8 µM (inconclusive) | IC50 [17]: 8.64 µM (not active)
